Assay results taken from PubChem BioAssay AID2060613 (Molecular Pharmacology Branch, DTP, NCI, 2025).
Several values for one entry are separate records, joined by “and”; a condition that tells them apart may be missing. Equal entries are not always repeated.

System: 233499-124-R-J3-PDC complex spheroid viability
Experiment: Anticancer human tumor 233499-124-R-J3-PDC patient-derived colon adenocarcinoma cell line growth inhibition [CLK]
Details: for viability, T/C: stronger effect = lower value
How it was run: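 Multi-cell-type spheroids combined patient-derived tumor cells with HUVEC endothelial cells and human mesenchymal stem cells. Paired agents were dosed in half-log steps down from about clinical Cmax, or from 10 microM where Cmax was unknown.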

[1] = curve of first compound, second compound 0.0316 µM
[2] = curve of first compound, second compound 0.1 µM
[3] = curve of first compound, second compound 0.316 µM
[4] = curve of first compound, second compound 1 µM
[5] = curve of first compound, second compound 3.16 µM
[6] = curve of first compound, second compound 10 µM
[7] = second compound 0.0316 µM, first compound 0.0316 µM
[8] = second compound 0.0316 µM, first compound 0.1 µM
[9] = second compound 0.0316 µM, first compound 0.316 µM
[10] = second compound 0.0316 µM, first compound 1 µM
[11] = second compound 0.0316 µM, first compound 3.16 µM
[12] = second compound 0.0316 µM, first compound 10 µM
[13] = second compound 0.1 µM, first compound 0.0316 µM
[14] = second compound 0.1 µM, first compound 0.1 µM
[15] = second compound 0.1 µM, first compound 0.316 µM
[16] = second compound 0.1 µM, first compound 1 µM
[17] = second compound 0.1 µM, first compound 3.16 µM
[18] = second compound 0.1 µM, first compound 10 µM
[19] = second compound 0.316 µM, first compound 0.0316 µM
[20] = second compound 0.316 µM, first compound 0.1 µM
[21] = second compound 0.316 µM, first compound 0.316 µM
[22] = second compound 0.316 µM, first compound 1 µM
[23] = second compound 0.316 µM, first compound 3.16 µM
[24] = second compound 0.316 µM, first compound 10 µM
[25] = second compound 1 µM, first compound 0.0316 µM
[26] = second compound 1 µM, first compound 0.1 µM
[27] = second compound 1 µM, first compound 0.316 µM
[28] = second compound 1 µM, first compound 1 µM
[29] = second compound 1 µM, first compound 3.16 µM
[30] = second compound 1 µM, first compound 10 µM
[31] = second compound 3.16 µM, first compound 0.0316 µM
[32] = second compound 3.16 µM, first compound 0.1 µM
[33] = second compound 3.16 µM, first compound 0.316 µM
[34] = second compound 3.16 µM, first compound 1 µM
[35] = second compound 3.16 µM, first compound 3.16 µM
[36] = second compound 3.16 µM, first compound 10 µM
[37] = second compound 10 µM, first compound 0.0316 µM
[38] = second compound 10 µM, first compound 0.1 µM
[39] = second compound 10 µM, first compound 0.316 µM
[40] = second compound 10 µM, first compound 1 µM
[41] = second compound 10 µM, first compound 3.16 µM
[42] = second compound 10 µM, first compound 10 µM
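Further: spheroids exposed to the drug combinations for seven days.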
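Wherever viability, T/C is given: percent viability relative to DMSO vehicle control wells taken as 100%.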

`C#Cc1c(F)ccc2cc(O)cc(-c3ncc4c(N5CC6CCC(C5)N6)nc(OCC56CCCN5CC(F)C6)nc4c3F)c12` (stereo not given) + CN1CCN(c2cc(C(=O)Nc3cc4cc(-c5cnn(C)c5)ccc4cn3)ccn2)CC1 was tested, and the IC50 [1] was over 10 µM, the IC50 [2] was over 10 µM and the IC50 [3] was over 10 µM. It also gave an IC50 [4] of under 0.0316 µM, an IC50 [5] of under 0.0316 µM and an IC50 [6] of under 0.0316 µM. It also gave a viability, T/C [7] of 80.6%, a viability, T/C [8] of 96.9% and a viability, T/C [9] of 92.9%. The viability, T/C [10] was 91.9%, the viability, T/C [11] was 98.1% and the viability, T/C [12] was 76.8%. For the same compound, the viability, T/C [13] was 87.4%, the viability, T/C [14] was 99.8% and the viability, T/C [15] was 109%. The viability, T/C [16] was 94.1%, the viability, T/C [17] was 85.7% and the viability, T/C [18] was 71.4%. It also gave a viability, T/C [19] of 90.7%, a viability, T/C [20] of 92% and a viability, T/C [21] of 102%. For the same compound, the viability, T/C [22] was 98.5%, the viability, T/C [23] was 81.9% and the viability, T/C [24] was 66.4%. The viability, T/C [25] was 3.8%, the viability, T/C [26] was 4.61% and the viability, T/C [27] was 1.85%. The viability, T/C [28] was 9.57%, the viability, T/C [29] was 2.33% and the viability, T/C [30] was 1.27%. The viability, T/C [31] was 0.59%, the viability, T/C [32] was 0.56% and the viability, T/C [33] was 0.97%. It also gave a viability, T/C [34] of 0.63%, a viability, T/C [35] of 1.43% and a viability, T/C [36] of 0.5%. The viability, T/C [37] was 0.45%, the viability, T/C [38] was 0.45% and the viability, T/C [39] was 0.43%. The viability, T/C [40] was 0.39%, the viability, T/C [41] was 0.39% and the viability, T/C [42] was 0.8%.

In the case of `Nc1ccccc1NC(=O)c1ccc(CNC(=O)OCc2cccnc2)cc1`, the viability, T/C (compound 0.0316 µM) is reported as 91.4% and 90.3%, the viability, T/C (compound 0.1 µM) is reported as 87.2% and 89.8% and the viability, T/C (compound 0.316 µM) is reported as 74.4% and 96.3%. The viability, T/C (compound 1 µM) was 78% and 89.7%, the viability, T/C (compound 3.16 µM) was 32.4% and 33.4% and the viability, T/C (compound 10 µM) was 0.79% and 1.47%. The IC50 (curve of compound) was 2 µM and 2.25 µM.

With `COc1cccc2c1C(=O)c1c(O)c3c(c(O)c1C2=O)CC(O)(C(=O)CO)CC3OC1CC(N)C(O)C(C)O1` (stereo not given) + CN1CCN(c2cc(C(=O)Nc3cc4cc(-c5cnn(C)c5)ccc4cn3)ccn2)CC1 the IC50 [1] was 2.55 µM, the IC50 [2] was 1.78 µM and the IC50 [3] was 1.94 µM. The IC50 [4] was under 0.0316 µM, the IC50 [5] was under 0.0316 µM and the IC50 [6] was under 0.0316 µM. It also gave a viability, T/C [7] of 80.4%, a viability, T/C [8] of 110% and a viability, T/C [9] of 106%. The viability, T/C [10] was 80.9%, the viability, T/C [11] was 43.2% and the viability, T/C [12] was 10.8%. For the same compound, the viability, T/C [13] was 98%, the viability, T/C [14] was 110% and the viability, T/C [15] was 100%. For the same compound, the viability, T/C [16] was 68.5%, the viability, T/C [17] was 30.7% and the viability, T/C [18] was 5.13%. For the same compound, the viability, T/C [19] was 84.7%, the viability, T/C [20] was 97.6% and the viability, T/C [21] was 66.5%. The viability, T/C [22] was 61.9%, the viability, T/C [23] was 44.4% and the viability, T/C [24] was 2.79%. The viability, T/C [25] was 0.46%, the viability, T/C [26] was 0.59% and the viability, T/C [27] was 10.8%. The viability, T/C [28] was 0.33%, the viability, T/C [29] was 5.03% and the viability, T/C [30] was 0.81%. It also gave a viability, T/C [31] of 0.55%, a viability, T/C [32] of 0.57% and a viability, T/C [33] of 0.48%. The viability, T/C [34] was 0.43%, the viability, T/C [35] was 0.53% and the viability, T/C [36] was 0.67%. For the same compound, the viability, T/C [37] was 0.35%, the viability, T/C [38] was 0.39% and the viability, T/C [39] was 0.38%. The viability, T/C [40] was 0.34%, the viability, T/C [41] was 0.3% and the viability, T/C [42] was 0.24%.

In the case of `Cn1ncnc1[C@H]1c2n[nH]c(=O)c3cc(F)cc(c23)N[C@@H]1c1ccc(F)cc1`, the viability, T/C (compound 0.000316 µM) is reported as 100% and 107%, the viability, T/C (compound 0.001 µM) is reported as 85.7% and 92% and the viability, T/C (compound 0.00316 µM) is reported as 100% and 103%. The viability, T/C (compound 0.01 µM) was 97.6% and 97.4%, the viability, T/C (compound 0.0316 µM) was 100% and 97.1% and the viability, T/C (compound 0.1 µM) was 103% and 96%. The IC50 (curve of compound) was over 0.1 µM.

For `CC1(C)CCC(CN2CCN(c3ccc(C(=O)NS(=O)(=O)c4ccc(NCC5CCOCC5)c([N+](=O)[O-])c4)c(Oc4cnc5[nH]ccc5c4)c3)CC2)=C(c2ccc(Cl)cc2)C1`, the viability, T/C (compound 0.0316 µM) was 99.6% and 96.4%, the viability, T/C (compound 0.1 µM) was 98.9% and 93.4% and the viability, T/C (compound 0.316 µM) was 99.4% and 96.6%. The viability, T/C (compound 1 µM) was 95.5% and 98.7%, the viability, T/C (compound 3.16 µM) was 111% and 105% and the viability, T/C (compound 10 µM) was 12.8% and 25.5%. For the same compound, the IC50 (curve of compound) was 6.15 µM and 6.78 µM.
